Data on 9 molecules can be found in US8691800B2, “Quinoline derivatives as antibacterial agents” (Janssen Pharmaceutica N.V., priority 2005, dated 2014).

Molecules are shown by their SMILES. Converted amounts (≈) assume the structure as drawn.

The test system of data set [1] is Streptococcus pneumoniae (ATCC6305). Put plainly: Microtitre plate assay, IC90 for bacterial growth. Format: cell-based. To be noted: for IC90 SPN 6305: 90% inhibitory concentration for bacterial growth; for IC90: Streptococcus pneumoniae, ATCC6305, 90% inhibitory concentration for bacterial growth, read-out: IC90 SPN 6305. The protocol: (§1) The bacteria used in this study were grown overnight in flasks containing 100 ml Mueller-Hinton Broth (Becton Dickinson—cat. no. 275730) in sterile de-ionized water, with shaking, at 37° C. Stocks (0.5 ml/tube) were stored at 70° C. until use. Bacteria titrations were performed in microtiter plates and colony forming units (CFUs) were determined. In general, an inoculum level of approximately 100 CFUs was used for susceptibility testing.
(§2) Anti bacterial Susceptibility Testing: IC90 Determination
(§3) Flat-bottom, sterile 96-well plastic microtiter plates were filled with 180 μl of sterile deionized water, supplemented with 0.25% BSA. Subsequently, stock solutions (7.8× final test concentration) of compounds were added in 45 μl volumes in column 2. Serial five-fold dilutions (45 μl in 180 μl) were made directly in the microtiter plates from column 2 to reach column 11. Untreated control samples with (column 1) and without (column 12) inoculum were included in each microtiter plate. Depending on the bacteria type, approximately 10 to 60 CFU per well of bacteria inoculum (100 TCID50), in a volume of 100 μl in 2.8× Mueller-Hinton broth medium, was added to the rows A to H, except column 12. The same volume of broth medium without inoculum was added to column 12 in row A to H. The cultures were incubated at 37° C. for 24 hours under a normal atmosphere (incubator with open air valve and continuous ventilation). At the end of incubation, one day after inoculation, the bacterial growth was quantitated fluorometrically. Therefore resazurin (0.6 mg/ml) was added in a volume of 20 μl to all wells 3 hours after inoculation, and the plates were re-incubated overnight. A change in colour from blue to pink indicated the growth of bacteria. The fluorescence was read in a computer-controlled fluorometer (Cytofluor Biosearch) at an excitation wavelength of 530 nm and an emission wavelength of 590 nm. The % growth inhibition achieved by the compounds was calculated according to standard methods. The IC90 (expressed in μg/ml) was defined as the 90% inhibitory concentration for bacterial growth.

Data set [2] has as its system Streptococcus pyogens (ATCC8668). Put plainly: Microtitre plate assay, IC90 for bacterial growth. The note with it: for IC90: Streptococcus, ATCC8668, 90% inhibitory concentration for bacterial growth, read-out: IC90 SPY 8668; for IC90 SPY 8668: 90% inhibitory concentration for bacterial growth. Format: cell-based. The protocol: as §1, §2, §3
Data set [3] relates to Staphylococcus aureus (ATCC29213). Put plainly: Microtitre plate assay, IC90 for bacterial growth. Format: cell-based. The note with it: 90% inhibitory concentration for bacterial growth, 24 hours at 37° C., resazurin; for IC90: Staphylococcus aureus, ATCC29213, 24 h, read-out: IC90 STA 29213. As to the method:
as §1, §2, §3
A general note: Alamar Blue is a resazurin reagent that responds to reducing activity.

In data set [4] the test system is Bacillus subtilis (ATCC43639). Description: Microtitre plate assay, IC90 for bacterial growth. Format: cell-based. To be noted: for IC90: Bacillus subtilis, ATCC43639, 90% inhibitory concentration for bacterial growth, read-out: IC90 BSU 43639. The protocol: as §1, §2, §3
The subject of data set [5] is Staphylococcus aureus (ATCC25923). Put plainly: Microtitre plate assay, IC90 for bacterial growth. Format: cell-based. To be noted: for IC90: Staphylococcus aureus, ATCC25923, 90% inhibitory concentration for bacterial growth, read-out: IC90 STA 25923. As to the method: as §1, §2, §3
The test system of data set [6] is Enterococcus faecalis (ATCC29212). Put plainly: Microtitre plate assay, IC90 for bacterial growth. It is filed as cell-based. To be noted: for IC90: Enterococcus faecalis, ATCC29212, 90% inhibitory concentration for bacterial growth, read-out: IC90 EFA 29212; for IC90 EFA 29212: 90% inhibitory concentration for bacterial growth. As to the method: as §1, §2, §3
The test system of data set [7] is Pseudomonas aeruginosa (ATCC27853). Description: Microtitre plate assay, IC90 for bacterial growth. It is filed as cell-based. The note with it: for IC90: Pseudomonas aeruginosa, ATCC27853, 90% inhibitory concentration for bacterial growth, read-out: IC90 PAE 27853; for IC90 PAE 27853: 90% inhibitory concentration for bacterial growth. As to the method:
as §1, §2, §3

In data set [8] the test system is methicilline resistant Staphylococcus aureus (MRSA) (a clinical isolate from the University of Antwerp). Description: Microtitre plate assay, IC90 for bacterial growth. The note with it: 90% inhibitory concentration for bacterial growth; for IC90: Staphylococcus aureus, MRSA, read-out: IC90 STA RMETHIC. Format: cell-based. The protocol:
as §1, §2, §3

Data set [9] relates to Listeria monocytogenes (ATCC49594). Description: Microtitre plate assay, IC90 for bacterial growth. Format: cell-based. As to the method: as §1, §2, §3
[10] abbreviates: 90% inhibitory concentration for bacterial growth.

By IC90 is commonly meant the concentration needed for an effect of 90%. In general, melting point refers to the temperature, or range, at which the solid turns liquid.

With `COc1nc2ccc(-c3ccco3)cc2cc1C(c1ccccc1)C1(c2cccc3ccccc23)CCN(C)CO1` (single isomer, unassigned) [Compound 6], the “IC90 SPN 6305” value in data set [1] was 2.7 µg/mL (≈ 4.99 µM). Also, the IC90 in [2], in data set [3], in [4], in data set [5], in [6] and in data set [7] was 13.6 µg/mL (≈ 25.2 µM) each time. In addition, the “IC90 STA RMETHIC” value in data set [8] turned out to be 54.1 µg/mL (≈ 100 µM).

`CC[N+]1(C)CCC(c2cccc3ccccc23)(C(c2ccccc2)c2cc3cc(Br)ccc3nc2OC)OC1.[I-]` (single isomer, unassigned) [Compound 19]: the melting point was 236 °C. In data set [1], the “IC90 SPN 6305” value is 0.5 µg/mL. In addition, the IC90 in data set [2] was 1.8 µg/mL. Further, the IC90 in data set [3] amounted to 0.4 µg/mL. Further, in data set [6], the IC90 is 1.8 µg/mL. For the same molecule, the IC90 in [7] came to 3.7 µg/mL. In addition, the IC90 in data set [8] was 2.3 µg/mL.

For the molecule `COc1nc2ccc(-c3ccccc3)cc2cc1C(c1ccccc1)C1(c2cccc3ccccc23)CCN(C)CO1` (single isomer, unassigned) [Compound 2], the “IC90 SPN 6305” value in [1] came to 5.5 µg/mL (≈ 9.99 µM). Further, the “IC90 SPY 8668” value in [2] turned out to be 55.1 µg/mL (≈ 100 µM). In addition, in data set [3], the “IC90 STA 29213” value was 55.1 µg/mL (≈ 100 µM). The “IC90 BSU 43639” value in data set [4] (setting [10]) worked out at 55.1 µg/mL (≈ 100 µM). In data set [5] (setting [10]), the “IC90 STA 25923” value came out at 55.1 µg/mL (≈ 100 µM). The “IC90 LMO 49594” value in [9] (setting [10]) amounted to 55.1 µg/mL (≈ 100 µM). In addition, the “IC90 EFA 29212” value in [6] was found to be 55.1 µg/mL (≈ 100 µM). Further, the “IC90 PAE 27853” value in data set [7] worked out at 55.1 µg/mL (≈ 100 µM). The “IC90 STA RMETHIC” value in data set [8] was determined as 55.1 µg/mL (≈ 100 µM).

Consider `COc1nc2ccc(-c3ccccc3)cc2cc1C(c1ccccc1)C1(c2cccc3ccccc23)CCN(C)CO1` (single isomer, unassigned) [Compound 9], for which the IC90 in data set [1] amounted to 4.9 µg/mL (≈ 8.9 µM); in [2], 55.1 µg/mL (≈ 100 µM); in data set [3], 55.1 µg/mL (≈ 100 µM); in [4] it was 55.1 µg/mL (≈ 100 µM); in [5] it was 55.1 µg/mL (≈ 100 µM); in data set [9] (Listeria monocytogenes, ATCC49594, 90% inhibitory concentration for bacterial growth, read-out: IC90 LMO 49594), 55.1 µg/mL (≈ 100 µM). Moreover, the IC90 in [6], in [7] and in [8] was 55.1 µg/mL (≈ 100 µM) in each case.

The molecule `CC[N+]1(C)CCC(c2cccc3ccccc23)(C(c2ccccc2)c2cc3cc(Br)ccc3nc2OC)OC1.[I-]` (single isomer, unassigned) [Compound 20] yielded a melting point of 215 °C. The “IC90 SPN 6305” value in data set [1] came out at 1.8 µg/mL. The “IC90 SPY 8668” value in data set [2] is 2.1 µg/mL. Also, the “IC90 STA 29213” value in [3] amounted to 0.5 µg/mL. Also, the “IC90 EFA 29212” value in [6] came out at 1.8 µg/mL. Moreover, the “IC90 PAE 27853” value in data set [7] was determined as 4.6 µg/mL. For the same molecule, the “IC90 STA RMETHIC” value in data set [8] was 2.3 µg/mL.

Consider `COc1nc2ccc(Cl)cc2cc1C(c1ccccc1)C1(c2cccc3ccccc23)CCN(C)CO1` (single isomer, unassigned) [Compound 3], for which, in data set [3], the “IC90 STA 29213” value came to 12.8 µg/mL (≈ 25.1 µM).

As for `COc1nc2ccc(Br)cc2cc1C(c1ccc(Cl)cc1)C1(c2cccc3ccccc23)CCN(C)CO1` (single isomer, unassigned) [Compound 21], the melting point amounted to 201 °C. Moreover, the “IC90 SPN 6305” value in [1] amounted to 14.8 µg/mL (≈ 25.2 µM). Further, in data set [2], the “IC90 SPY 8668” value worked out at 14.8 µg/mL (≈ 25.2 µM). In addition, the “IC90 STA 29213” value in data set [3] was 14.8 µg/mL (≈ 25.2 µM). Further, the “IC90 EFA 29212” value in [6] turned out to be 14.8 µg/mL (≈ 25.2 µM). Moreover, the “IC90 PAE 27853” value in data set [7] was determined as 14.8 µg/mL (≈ 25.2 µM).

As for `COc1nc2ccc(Br)cc2cc1C(c1ccccc1)C1(c2cccc3ccccc23)CCN(C)CO1` (single isomer, unassigned) [Compound 7], the melting point was 108 °C. Moreover, the “IC90 SPN 6305” value in data set [1] turned out to be 13.9 µg/mL (≈ 25.1 µM). In addition, the “IC90 SPY 8668” value in data set [2] worked out at 13.9 µg/mL (≈ 25.1 µM). Besides, the “IC90 STA 29213” value in data set [3] turned out to be 13.9 µg/mL (≈ 25.1 µM). Besides, in [6], the “IC90 EFA 29212” value was found to be 13.9 µg/mL (≈ 25.1 µM). Further, the “IC90 PAE 27853” value in [7] amounted to 13.9 µg/mL (≈ 25.1 µM).

In the case of `COc1nc2ccc(Br)cc2cc1C(c1ccc(Cl)cc1)C1(c2cccc3ccccc23)CCN(C)CO1` (single isomer, unassigned) [Compound 13], the IC90 worked out at 13.2 µg/mL (≈ 22.5 µM) in data set [1]; 14.8 µg/mL (≈ 25.2 µM) in data set [2]; 14.8 µg/mL (≈ 25.2 µM) in data set [3]; 14.8 µg/mL (≈ 25.2 µM) in [6]; 14.8 µg/mL (≈ 25.2 µM) in data set [7].
